experiment: recombinant UMI read abundance after kanamycin selection (control-corrected) (log10(CPM+1)); higher = more efficient recombination; extreme values may be limits of the assay; sequences stand for … in AGTGCAGAGAAAATCGGCCAGTTTTCTCTGCCTGCAGTCCGCATGCCGTGGGACCCCTTGGGTTCTAACCTGTTGCCTAGATTTATGCAGCGGACTGCCTTTCTCCCAAAGTGATAAACCGG…AGGTTGGTTTCACT; site = the 11-nt donor
Method in brief: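 For the IS621 bridge recombinase, a pooled Escherichia coli screen tested donor and donor-binding-loop pairs. Cells received the pair library together with a target plasmid encoding a fixed target and T7-inducible recombinase, then went onto IPTG (0.07 mM) plus kanamycin or unselected plates in duplicate. After PCR across the donor–target junction and sequencing, recombinant UMI counts were normalized to CPM, averaged, and scaled by control-derived factors. Each value is given as log10(CPM+1).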

Row | Sequence | recombinant UMI read abundance (log10)
1 | TGTTGCCCATGGACCGGTTTTCCCGGTAATCCGTATTTGTA (site TGTTCCCCTTA) | 0.324
2 | TGTTGCCCATGGACCGGTTTTCCCGGTAATCCGTATTTGTA (site TGTTGCCCTTA) | 0.0196
3 | TGTTGCCCATGGACCGGTTTTCCCGGTAATCCGTATTTGTA (site TGTTTCCCTTA) | 0.0108
4 | TGTTGTTCATGGACCGGTTTTCCCGGTAATCCGTATTTGAA (site TGTTGTTCTTT) | 0.472
5 | TTAACTGCATGGACCGGTTTTCCCGGTAATCCGTATTTGTG (site TTAACTGCTCA) | 0.697
6 | TTAACTGCATGGACCGGTTTTCCCGGTAATCCGTATTTGTG (site TTACCTGCTCA) | 0.00413
7 | TTAACTGCATGGACCGGTTTTCCCGGTAATCCGTATTTGTG (site TTAGCTGCTCA) | 0.00337
8 | TTAACTGCATGGACCGGTTTTCCCGGTAATCCGTATTTGTG (site TTATCTGCTCA) | 0.0133
9 | TTAAGCCCATGGACCGGTTTTCCCGGTAATCCGTATTTGGT (site TTAAGCCCTAC) | 0.174
10 | TTAATTCCATGGACCGGTTTTCCCGGTAATCCGTATTTGTT (site TTAATTCCTAA) | 0.0021
11 | TTACAATCATGGACCGGTTTTCCCGGTAATCCGTATTTGGG (site TTACAATCTCC) | 0
12 | TTACATTCATGGACCGGTTTTCCCGGTAATCCGTATTTGAC (site TTACATTCTGT) | 1.68
13 | TTACCATCATGGACCGGTTTTCCCGGTAATCCGTATTTGAC (site TTACCATCTGT) | 2.16
14 | TTACCTTCATGGACCGGTTTTCCCGGTAATCCGTATTTGTC (site TTACCTTCTGA) | 0.519
15 | TTAGAAACATGGACCGGTTTTCCCGGTAATCCGTATTTGAT (site TTAGAAACTAT) | 2.51
16 | TTAGAGGCATGGACCGGTTTTCCCGGTAATCCGTATTTGGA (site TTAGAGGCTTC) | 0.701
17 | TTAGATGCATGGACCGGTTTTCCCGGTAATCCGTATTTGTG (site TTAGATGCTCA) | 1.52
18 | TTAGATGCATGGACCGGTTTTCCCGGTAATCCGTATTTGTG (site TTAGCTGCTCA) | 0.0227
19 | TTAGATGCATGGACCGGTTTTCCCGGTAATCCGTATTTGTG (site TTAGGTGCTCA) | 0.00706
20 | TTAGATGCATGGACCGGTTTTCCCGGTAATCCGTATTTGTG (site TTAGTTGCTCA) | 0.00838
21 | TTAGCCGCATGGACCGGTTTTCCCGGTAATCCGTATTTGTG (site TTAGCAGCTCA) | 0.108
22 | TTAGCCGCATGGACCGGTTTTCCCGGTAATCCGTATTTGTG (site TTAGCCGCTCA) | 0.564
23 | TTAGCCGCATGGACCGGTTTTCCCGGTAATCCGTATTTGTG (site TTAGCGGCTCA) | 0.0427
24 | TTAGCCGCATGGACCGGTTTTCCCGGTAATCCGTATTTGTG (site TTAGCTGCTCA) | 0.00693
25 | TTAGCTCCATGGACCGGTTTTCCCGGTAATCCGTATTTGTG (site TTAGCTACTCA) | 0.00349

Row | Sequence | recombinant UMI read abundance (log10)
26 | TTAGCTCCATGGACCGGTTTTCCCGGTAATCCGTATTTGTG (site TTAGCTCCTCA) | 0.0123
27 | TTAGCTCCATGGACCGGTTTTCCCGGTAATCCGTATTTGTG (site TTAGCTGCTCA) | 0.00795
28 | TTAGCTCCATGGACCGGTTTTCCCGGTAATCCGTATTTGTG (site TTAGCTTCTCA) | 0.0128
29 | TTAGCTGCATGGACCGGTTTTCCCGGTAATCCGTATTTGAG (site TTAGCTGCTCA) | 0.025
30 | TTAGCTGCATGGACCGGTTTTCCCGGTAATCCGTATTTGAG (site TTAGCTGCTCC) | 0.0699
31 | TTAGCTGCATGGACCGGTTTTCCCGGTAATCCGTATTTGAG (site TTAGCTGCTCG) | 0.0144
32 | TTAGCTGCATGGACCGGTTTTCCCGGTAATCCGTATTTGAG (site TTAGCTGCTCT) | 0.839
33 | TTAGCTGCATGGACCGGTTTTCCCGGTAATCCGTATTTGCG (site TTAGCTGCTCA) | 0.00643
34 | TTAGCTGCATGGACCGGTTTTCCCGGTAATCCGTATTTGCG (site TTAGCTGCTCC) | 0.0194
35 | TTAGCTGCATGGACCGGTTTTCCCGGTAATCCGTATTTGCG (site TTAGCTGCTCG) | 1.41
36 | TTAGCTGCATGGACCGGTTTTCCCGGTAATCCGTATTTGCG (site TTAGCTGCTCT) | 0.00813
37 | TTAGCTGCATGGACCGGTTTTCCCGGTAATCCGTATTTGTA (site TTAGCTGCTAA) | 0.0184
38 | TTAGCTGCATGGACCGGTTTTCCCGGTAATCCGTATTTGTA (site TTAGCTGCTCA) | 0.026
39 | TTAGCTGCATGGACCGGTTTTCCCGGTAATCCGTATTTGTA (site TTAGCTGCTGA) | 0
40 | TTAGCTGCATGGACCGGTTTTCCCGGTAATCCGTATTTGTA (site TTAGCTGCTTA) | 1.35
41 | TTAGCTTCATGGACCGGTTTTCCCGGTAATCCGTATTTGTG (site TTAGCTACTCA) | 0.0149
42 | TTAGCTTCATGGACCGGTTTTCCCGGTAATCCGTATTTGTG (site TTAGCTCCTCA) | 0.012
43 | TTAGCTTCATGGACCGGTTTTCCCGGTAATCCGTATTTGTG (site TTAGCTGCTCA) | 0.00609
44 | TTAGCTTCATGGACCGGTTTTCCCGGTAATCCGTATTTGTG (site TTAGCTTCTCA) | 0.478
45 | TTAGGTTCATGGACCGGTTTTCCCGGTAATCCGTATTTGGC (site TTAGGTTCTGC) | 2.53
46 | TTAGTATCATGGACCGGTTTTCCCGGTAATCCGTATTTGAG (site CTAGTATCTGT) | 0
47 | TTAGTATCATGGACCGGTTTTCCCGGTAATCCGTATTTGAG (site TTAGTATCTCT) | 1.66
48 | TTAGTCTCATGGACCGGTTTTCCCGGTAATCCGTATTTGAC (site CTAGTATCTGT) | 0
49 | TTAGTCTCATGGACCGGTTTTCCCGGTAATCCGTATTTGAC (site TTAGTCTCTGT) | 3.02
50 | TTATCTGCATGGACCGGTTTTCCCGGTAATCCGTATTTGTG (site TTAACTGCTCA) | 0.00525

Row | Sequence | recombinant UMI read abundance (log10)
51 | TTATCTGCATGGACCGGTTTTCCCGGTAATCCGTATTTGTG (site TTACCTGCTCA) | 0.0587
52 | TTATCTGCATGGACCGGTTTTCCCGGTAATCCGTATTTGTG (site TTAGCTGCTCA) | 0.00464
53 | TTATCTGCATGGACCGGTTTTCCCGGTAATCCGTATTTGTG (site TTATCTGCTCA) | 1.73
54 | TTATGGTCATGGACCGGTTTTCCCGGTAATCCGTATTTGGC (site TTATGGTCTGC) | 1.88
55 | TTATGTACATGGACCGGTTTTCCCGGTAATCCGTATTTGGG (site TTATGTACTCC) | 0.0157
56 | TTATTGTCATGGACCGGTTTTCCCGGTAATCCGTATTTGCA (site TTATTGTCTTG) | 2.35
57 | TTCAAGTCATGGACCGGTTTTCCCGGTAATCCGTATTTGTA (site TTCAAGTCTTA) | 0.621
58 | TTCACGGCATGGACCGGTTTTCCCGGTAATCCGTATTTGTC (site TTCACGGCTGA) | 0.624
59 | TTCAGTCCATGGACCGGTTTTCCCGGTAATCCGTATTTGAT (site TTCAGTCCTAT) | 0
60 | TTCATTACATGGACCGGTTTTCCCGGTAATCCGTATTTGAT (site TTCATTACTAT) | 0
61 | TTCCAAGCATGGACCGGTTTTCCCGGTAATCCGTATTTGAG (site ATCCAAGCTCT) | 0
62 | TTCCAAGCATGGACCGGTTTTCCCGGTAATCCGTATTTGAG (site CTCCAAGCTCT) | 0.00912
63 | TTCCAAGCATGGACCGGTTTTCCCGGTAATCCGTATTTGAG (site GTCCAAGCTCT) | 0.0126
64 | TTCCAAGCATGGACCGGTTTTCCCGGTAATCCGTATTTGAG (site TTCCAAGCTCT) | 0.0285
65 | TTCCAGCCATGGACCGGTTTTCCCGGTAATCCGTATTTGTG (site TTCCAGCCTCA) | 0.0201
66 | TTCCCTACATGGACCGGTTTTCCCGGTAATCCGTATTTGAG (site ATCCCTACTCT) | 0
67 | TTCCCTACATGGACCGGTTTTCCCGGTAATCCGTATTTGAG (site CTCCCTACTCT) | 0.0509
68 | TTCCCTACATGGACCGGTTTTCCCGGTAATCCGTATTTGAG (site GTCCCTACTCT) | 0.0155
69 | TTCCCTACATGGACCGGTTTTCCCGGTAATCCGTATTTGAG (site TTCCCTACTCT) | 0.00443
70 | TTCGACCCATGGACCGGTTTTCCCGGTAATCCGTATTTGAG (site TTCGACCCTCT) | 0.00989
71 | TTCGAGACATGGACCGGTTTTCCCGGTAATCCGTATTTGAC (site TTCGAGACTGT) | 1.53
72 | TTCGAGGCATGGACCGGTTTTCCCGGTAATCCGTATTTGAT (site TTCGAGGCTAT) | 0.482
73 | TTCGCACCATGGACCGGTTTTCCCGGTAATCCGTATTTGGT (site TTCGCACCTAC) | 0.00499
74 | TTCGCTGCATGGACCGGTTTTCCCGGTAATCCGTATTTGTA (site TTCGCTGCTTA) | 0.369
75 | TTCTACGCATGGACCGGTTTTCCCGGTAATCCGTATTTGTT (site TTCTACGCTAA) | 0.603

From the supplement of paper PMC11208160
